PubChem BioAssay AID1918956 (Molecular Pharmacology Branch, DTP, NCI, 2023)
Where “and” joins values, the source holds several entries; their conditions need not be identical. Equal entries are not always repeated. One block for each compound: values may come before it.

Test system: OVCAR-5 complex spheroids, viability
Assay: Anticancer human tumor OVCAR-5 cell line growth inhibition;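 also: spheroids exposed to agents for seven days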;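 as to viability, T/C: 100% = DMSO vehicle control wells viability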
Details: for viability, T/C: stronger effect = lower value
Text: Multicellular complex tumor spheroid response to LSD1 Inhibitor Iadademstat in combination with a variety of drugs and investigational agents in selected tumor cell lines
The current study was undertaken to assess response to LSD1 inhibitors in combination with standard-of-care drugs and investigational agents in solid tumor complex spheroid models as well as in the K-562 leukemia. Complex spheroids include a stromal component modeled by human endothelial cells (HUVEC) and fibroblasts modeled by human mesenchymal stem cells (MSCs). The concentration ranges selected for each drug and investigational agent were based upon clinically achievable concentrations if the clinical Cmax of the agent was known.
Compounds. The drugs and investigational agents used in this study are listed on Table 1. All of the agents used, including staurosporine (NSC755774) and gemcitabine (NSC613327), were obtained from the Developmental Therapeutics Program, NCI. FDA-approved anticancer drugs are available from the NCI at http://dtp.nci.nih.gov/branches/dscb/oncology_drugset_explanation.html. Drugs and investigational agents were >95% pure by proton nuclear magnetic resonance (NMR) and liquid chromatography/mass spectrometry (LC/MS). Stock solutions were prepared at 400x in DMSO, stored at -70 degrees C, and diluted in fresh medium prior to their use. The final concentration of DMSO in cell culture wells never exceeded 0.25% (v/v). The FDA-approved anticancer drug set is available from the Developmental Therapeutics Program at https://dtp.cancer.gov/organization/dscb/obtaining/available_plates.htm. All drugs and investigational agents were tested over a range starting from a high concentration at or near the clinical Cmax and decreasing in half-log increments. If the clinical Cmax for an agent had not been determined, the highest concentration tested was 10 microM.
Cell Lines. The patient-derived cancer cell (PDC) lines: 292921-168-R-J2-PDC, K24384-001-R-PDC, and 521955-158-R2-J5-PDC pancreatic carcinomas, 556581-035-R-J1 ovarian carcinoma, 324938-238-R-J1-PDC, 855422-203-R-J1-PDC and 883617-216-R-J1-PDC urothelial bladder carcinomas, 743489-274-T-PDC renal cell carcinoma, 138582-R-J1 Merkel cell tumor, K60290-347-R-J1 and K57222-313-R-J1-PDC glioblastomas, 653999-131-R-J2-PDC, LG0703-F948-PDC, and 349418-098-R-PDC non-small cell lung carcinomas, 885512-296-R-J2-PDC, 171881-019-R-J1-PDC breast carcinomas and 186277-243-T-J2-PDC and 233499-124-R-J2-PDC colon carcinomas were obtained from the NCI Patient-Derived Models Repository (PDMR, https://pdmr.cancer.gov). The established cell lines NCI/ADR-RES (RRID:CVCL_14520 and OVCAR-5 (RRID:CVCL_1628) ovarian carcinomas, 786-O (RRID:CVCL_1051) and A498 […] renal cell carcinoma, NCI-H211 (ATCC, cat. CRL-5824; RRID:CVCL_1529), NCI-H196 (ATCC, cat. CRL-5823, RRID:CVCL_1509), SW 1271 (ATCC, cat. CRL-2177, RRID:CVCL_1716) and NCI-H1876 (ATCC, cat. CRL-5902, RRID:CVCL_1503) small cell lung carcinomas, MDA-MB-231 (RRID:CVCL_0062) and MDA-MB-468 (RRID:CVCL_0419)breast carcinomas (10-12). Pooled donor human umbilical vein endothelial cells (HUVEC, Lonza, cat. CC-2519) and human mesenchymal stem cells (hMSC, Lonza, cat. PT-2501) were purchased from Lonza (Walkersville, MD).
Cell Culture. All cells were maintained in an incubator at 37 degrees C and 5% CO2 with 95% humidity. The PDC lines were cultured according to standard operating procedures established by the NCI PDMR (https://pdmr.cancer.gov). Briefly all PDCs were thawed and cultured in Matrigel-coated flasks prepared with a working solution of 1X Ham's F-12 nutrient mix, without supplementation (Invitrogen, Waltham, MA, cat. 11765054), 100 U/mL penicillin-streptomycin (Invitrogen, cat. 15140122), and 2.5% Matrigel (Corning Inc., Corning, NY, cat. 354248) for the first three passages. […]

[1] = curve of first compound, second compound 0.1 µM
[2] = curve of first compound, second compound 0.316 µM
[3] = curve of first compound, second compound 1 µM
[4] = curve of first compound, second compound 3.16 µM
[5] = curve of first compound, second compound 10 µM
[6] = second compound 0.1 µM, first compound 0.0316 µM
[7] = second compound 0.1 µM, first compound 0.1 µM
[8] = second compound 0.316 µM, first compound 0.0316 µM
[9] = second compound 0.316 µM, first compound 0.1 µM
[10] = second compound 1 µM, first compound 0.0316 µM
[11] = second compound 1 µM, first compound 0.1 µM
[12] = second compound 3.16 µM, first compound 0.0316 µM
[13] = second compound 3.16 µM, first compound 0.1 µM
[14] = second compound 10 µM, first compound 0.0316 µM
[15] = second compound 10 µM, first compound 0.1 µM

Compound: CC(C)CC(NC(=O)C(Cc1ccccc1)NC(=O)c1cnccn1)B(O)O (configuration not stated) + NC1CC1c1ccc(-c2cccc(O)c2)cc1
IC50 [1]: 7.35 nM | IC50 [2]: 6.68 nM | IC50 [3]: 6.31 nM | IC50 [4]: 4.44 nM | IC50 [5]: 4.52 nM | viability, T/C (second compound 0.1 µM, first compound 0.000316 µM): 111% | viability, T/C (second compound 0.1 µM, first compound 0.001 µM): 103% | viability, T/C (second compound 0.1 µM, first compound 0.00316 µM): 75.8% | viability, T/C (second compound 0.1 µM, first compound 0.01 µM): 40.9% | viability, T/C [6]: 14.8% | viability, T/C [7]: 5.74% | viability, T/C (second compound 0.316 µM, first compound 0.000316 µM): 111% | viability, T/C (second compound 0.316 µM, first compound 0.001 µM): 98.8% | viability, T/C (second compound 0.316 µM, first compound 0.00316 µM): 74.6% | viability, T/C (second compound 0.316 µM, first compound 0.01 µM): 37.5% | viability, T/C [8]: 10.7% | viability, T/C [9]: 3.96% | viability, T/C (second compound 1 µM, first compound 0.000316 µM): 100% | viability, T/C (second compound 1 µM, first compound 0.001 µM): 103% | viability, T/C (second compound 1 µM, first compound 0.00316 µM): 71.6% | viability, T/C (second compound 1 µM, first compound 0.01 µM): 35% | viability, T/C [10]: 10.2% | viability, T/C [11]: 2.99% | viability, T/C (second compound 3.16 µM, first compound 0.000316 µM): 101% | viability, T/C (second compound 3.16 µM, first compound 0.001 µM): 70.5% | viability, T/C (second compound 3.16 µM, first compound 0.00316 µM): 65.7% | viability, T/C (second compound 3.16 µM, first compound 0.01 µM): 32.3% | viability, T/C [12]: 12.6% | viability, T/C [13]: 3.14% | viability, T/C (second compound 10 µM, first compound 0.000316 µM): 81% | viability, T/C (second compound 10 µM, first compound 0.001 µM): 87% | viability, T/C (second compound 10 µM, first compound 0.00316 µM): 57.4% | viability, T/C (second compound 10 µM, first compound 0.01 µM): 27.6% | viability, T/C [14]: 8.96% | viability, T/C [15]: 1.75%

IC50 (curve of compound): 54.5 nM and 35.5 nM
Compound: CC1COCCN1c1cc(-c2ccnn2C)c2ccnc(-c3ccn[nH]3)c2n1 (configuration not stated)
viability, T/C (compound 0.00316 µM): 105% and 92.5% | viability, T/C (compound 0.01 µM): 86.5% and 81.7% | viability, T/C (compound 0.0316 µM): 58.9% and 50.4% | viability, T/C (compound 0.1 µM): 39.9% and 36.2% | viability, T/C (compound 0.316 µM): 34.4% and 32.6% | viability, T/C (compound 1 µM): 32.2% and 27%

Compound: O=C(c1cc(Cc2n[nH]c(=O)c3ccccc23)ccc1F)N1CCN(C(=O)C2CC2)CC1 + NC1CC1c1ccc(-c2cccc(O)c2)cc1
IC50 [1]: > 10000 nM | IC50 [2]: > 10000 nM | IC50 [3]: > 10000 nM | IC50 [4]: > 10000 nM | IC50 [5]: > 10000 nM | viability, T/C [6]: 97.6% | viability, T/C [7]: 112% | viability, T/C (second compound 0.1 µM, first compound 0.316 µM): 102% | viability, T/C (second compound 0.1 µM, first compound 1 µM): 88% | viability, T/C (second compound 0.1 µM, first compound 3.16 µM): 76.9% | viability, T/C (second compound 0.1 µM, first compound 10 µM): 74.9% | viability, T/C [8]: 114% | viability, T/C [9]: 104% | viability, T/C (second compound 0.316 µM, first compound 0.316 µM): 99.4% | viability, T/C (second compound 0.316 µM, first compound 1 µM): 93.7% | viability, T/C (second compound 0.316 µM, first compound 3.16 µM): 85.3% | viability, T/C (second compound 0.316 µM, first compound 10 µM): 73.8% | viability, T/C [10]: 94.9% | viability, T/C [11]: 105% | viability, T/C (second compound 1 µM, first compound 0.316 µM): 93.7% | viability, T/C (second compound 1 µM, first compound 1 µM): 81.2% | viability, T/C (second compound 1 µM, first compound 3.16 µM): 81.5% | viability, T/C (second compound 1 µM, first compound 10 µM): 72.3% | viability, T/C [12]: 97.9% | viability, T/C [13]: 86.9% | viability, T/C (second compound 3.16 µM, first compound 0.316 µM): 96.9% | viability, T/C (second compound 3.16 µM, first compound 1 µM): 83% | viability, T/C (second compound 3.16 µM, first compound 3.16 µM): 71% | viability, T/C (second compound 3.16 µM, first compound 10 µM): 65.5% | viability, T/C [14]: 95.8% | viability, T/C [15]: 87% | viability, T/C (second compound 10 µM, first compound 0.316 µM): 70.5% | viability, T/C (second compound 10 µM, first compound 1 µM): 81.9% | viability, T/C (second compound 10 µM, first compound 3.16 µM): 73.2% | viability, T/C (second compound 10 µM, first compound 10 µM): 60.2%
